Legend:
BCap37 cells [1] = experiment: MTT cytotoxicity test with and without irradiation; type: cell-based, human
Procedure: FIG. 9 is a graph showing a cytotoxicity test of ICG and the complex formulation thereof on BCap37 cells. (I1S2 is a nanoparticle formed by ICG and SN38 with a molar ratio of 1:2; and I1P1 is an aqueous solution drug of the complex formed by ICG and Paclitaxel with a molar ratio of 1:1. The drugs were applied for 24 hours and then washed off, followed by incubation for 24 hours after irradiation and non-irradiation treatment, respectively.)
200 μL of cell suspension at the density of 4000 cells/well was uniformly added to a 96-well plate. After 24 hours of incubation, ICG, ICG/SN38 (I1S2) nanoparticles, ICG/PTX (I1P1) complex solution and ICG/CCM (I1C2) complex solution were added at different concentration points. Two identical plates were incubated in dark for 3 hours, and then culture medium was removed and washed three times with PBS, followed by addition of fresh medium. The irradiation group was further dark-incubated after 30 minutes of irradiation under a fluorescent lamp, and the other cell culture plate was dark-incubated all long as a light-proof control group. After 48 hours of incubation, culture plates were centrifuged at 900 rpm, and culture medium was carefully removed. The plates were added the medium containing 0.75 mg/mL MIT dark-incubated for 3 hours, centrifuged at 3500 rpm. After carefully removing the culture solution, the plates were added 100 μL of DMSO to each well, and shaked for 5 minutes to completely dissolve the purple solids. The absorbance (OD) value was recorded on a microplate reader. The test of each drug concentration point was repeated 3 times.

[2] = system: BCap37 human breast cancer cell line tumor; experiment: in vivo fluorescence imaging in tumor-bearing nude mice; conditions: 3 hours after administration, FIG. 13
From the text: Therefore, these two nanoparticle formulations were further selected for in vivo fluorescence imaging in tumor-bearing nude mice, in comparison with small molecule ICG. The tumor was located 2 cm below the right armpit of the mouse, derived from BCap37 human breast cancer cell line.

BCap37 cells [3] = experiment: photothermal therapy effect at the cellular level; type: cell-based, human; conditions: 3 h incubation, 808 nm laser 5 min, 1 W/cm^2
Procedure: The endocytosis experiment was carried out with the indocyanine green complex formulations prepared in embodiments 1 and 2 of the present invention, and the free ICG was used as a control. The procedures were as follows:
The experiment was divided into ICG/SN38 group, ICG/PTX group and ICG group. The BCap37 cells on the stage of logarithmic phase were evenly seeded in a 12-well plate at 1×10^5 cells/well. After 24 hours of incubation, the incubation medium was discarded, and the above formulations in 1 mL culture medium were added to the plate, respectively. After 3 hours of incubation, the incubation medium was discarded, and 1 mL of PBS was added. The three wells incubated with different formulations were then irradiated with 808 nm laser for 5 min (1 W/cm^2), and were photographed in real time by an infrared thermal camera, and the graphs of the temperature changes of each group were recorded.

cells = experiment: cellular uptake by laser confocal microscopy; type: cell-based; conditions: 2 hours after drug applied
Procedure: In order to judge the rate of cellular uptake of drug from the nano formulation, as well as the therapeutic effect of the drug, the laser confocal microscopy microscope was used to observe the distribution of the drug in the cells 2 hours after drug applied. […] Therefore, the largest amount of ICG could enter into the cell to exert best therapeutic effect in the nano drug-loading system.

[4] = system: BCap37 human breast cancer cell line tumor; experiment: tumor inhibition experiment in tumor-bearing nude mice, with and without irradiation; type: in vivo
Procedure: After the tumor size was grown to about 100 mm^3 (9 days after inoculation), the tumor-bearing nude mice were randomly divided into 7 groups, 5 in each group. One group was injected with PBS as blank control, and the other six administration groups were categorized as the ICG small molecule group without irradiation, ICG small molecule group plus irradiation, ICG/SN38 nanoparticle group, ICG/SN38 nanoparticle group plus irradiation, ICG/PTX aqueous solution group, and ICG/PTX aqueous solution group plus irradiation, respectively. The mice were injected via the tail vein at a dose of calculated ICG concentration at 10 mg/kg, and were administered once every other day for 2 times. The tumor size was recorded until the end of the experiment. The therapeutic effect was evaluated by comparing the treatment group with the control group. The tumor inhibition rate (IR) was calculated by the following formula: IR=100%×(mean tumor weight of the control group−mean tumor weight of the experimental group)/mean tumor weight of the control group.
FIG. 15 was the results of tumor inhibition after irradiation treatment. The ICG group was administered twice, and the ICG/SN38 nanoparticle group was administered once. Irradiation was carried out 4 hours after administration (808 nm laser, intensity 1 W/cm^2, irradiation for 2 minutes). […]

[5] = plasma clearance test on mice; type: in vivo
Procedure: To determine the appropriate drug ratio of ICG/SN38 nanoparticles for animal experiments, a series of ICG/SN38 nanoparticles: I2S1, I1S1, I1S2, I1S5 and I1S10 were prepared, and the average particle size thereof was 130 nm, 55 nm, 36 nm, 30 nm and 26 nm, respectively. The plasma clearance rate of the nanoparticles was measured based on the content of SN38 (10 mg/kg).
In addition, the plasma clearance rates of small molecule ICG, ICG/PTX solutions, and ICG/SN38 nanoparticles were compared.

For `CC1(C)C(/C=C/C=C/C=C/C=C2\N(CCCCS(=O)(=O)[O-])c3ccc4ccccc4c3C2(C)C)=[N+](CCCCS(=O)(=O)[O-])c2ccc3ccccc3c21.[Na+]` [ICG, indocyanine green], the IC50 (BCap37 cells [1]; Homo sapiens, Bcap37, light or radiation study, with light irradiation) was roughly 13.5 µM, the cell death (BCap37 cells [1]; ICG 20 μM, after irradiation) was “death of all the cells” and the “toxicity to the cells” value (BCap37 cells [1]; in the absence of light) was “not toxic”. For the same molecule, the “in vivo distribution by fluorescence” value [2] was “the majority of ICG from the small molecule ICG group were cleared by the body”, the cell temperature change (BCap37 cells [3]) was “no significant temperature changes” and the “cellular uptake / intracellular distribution” value (cells) was “difficult to enter the cell”. For the same molecule, the anti-tumor effect ([4]; irradiation 4 hours after administration, 808 nm, 1 W/cm^2, 2 minutes) was “residual tumors were still present and recurred rapidly after the end of treatment”, the anti-tumor effect ([4]; non-irradiation, ICG 10 mg/kg tail vein, every other day for 2 times) was “no anti-tumor effect at all” and the ICG in plasma ([5]; after 1 hour) was “nearly not detectable”. For the same molecule, the plasma clearance ([5]; mice, FIG. 11) was “extremely fast” and the concentration at 3 min ([5]; mouse, plasma, other: injection (site not specified), three minutes after injecting) was less than 1000 ng/mL.

From patent US11331387B2, “Self-assembled drug-loading system and preparation method therefor” (SHANGHAI SELECTION BIOSCIENCE LLC., priority 2016, dated 2022)
